In one assay the test system is medaka EP-1 protease. As to the kind of experiment: Inhibitor assay, enzyme activity measured using GD4K-βNA as a substrate. It counts as biochemical, medaka (Oryzias latipes).
The subject of another assay is medaka EP-2 protease. Described as above. It counts as biochemical, medaka (Oryzias latipes).
Assay [1] deals with T1, medaka EP-1 enteropeptidase serine protease domain, wild type, SEQ ID NO: 2 (Oryzias latipes, UniProt A4UWM5).
T1 sequence (A4UWM5 795-1036): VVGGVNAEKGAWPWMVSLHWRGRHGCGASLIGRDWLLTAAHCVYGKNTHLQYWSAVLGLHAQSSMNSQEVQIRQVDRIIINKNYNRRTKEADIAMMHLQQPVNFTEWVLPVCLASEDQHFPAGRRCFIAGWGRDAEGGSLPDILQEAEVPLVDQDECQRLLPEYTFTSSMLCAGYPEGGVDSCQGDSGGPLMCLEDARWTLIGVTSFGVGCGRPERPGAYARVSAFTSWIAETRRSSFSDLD
As to the kind of experiment: Inhibitor assay, EP-1 protease activity on GD4K-βNA. Format: biochemical, Japanese Medaka (Oryzias latipes). As to conditions: pH 7.4.

The target in assay [2] is medaka EP-2 enteropeptidase serine protease domain, wild type (EP-2, SEQ ID NO: 72) (Oryzias latipes, UniProt A4UWM6). The assay is described as follows: Inhibitor assay, EP-2 protease activity on GD4K-βNA. It counts as biochemical, Japanese Medaka (Oryzias latipes). The note with it: pH 7.4.
Chain of medaka EP-2 enteropeptidase serine protease domain, wild type (EP-2, SEQ ID NO: 72) (A4UWM6 802-1043): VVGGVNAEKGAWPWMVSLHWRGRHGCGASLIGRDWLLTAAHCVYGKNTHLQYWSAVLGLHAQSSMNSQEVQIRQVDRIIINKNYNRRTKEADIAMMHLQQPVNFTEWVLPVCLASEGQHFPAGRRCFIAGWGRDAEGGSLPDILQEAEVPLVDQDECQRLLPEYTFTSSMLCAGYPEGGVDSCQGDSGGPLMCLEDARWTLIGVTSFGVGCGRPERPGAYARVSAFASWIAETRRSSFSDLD
The mark [3] stands for this setting: inhibitor 1.0 mM, GD4K-βNA substrate, 10 min preincubation.
Where [4] appears, read: 0.2 mM inhibitor, GD4K-βNA substrate, 10 min preincubation.
The mark [5] stands for this setting: inhibitor 0.1 mM, GD4K-βNA substrate, 10 min preincubation.
Where [6] appears, read: inhibitor 0.01 mg/ml, GD4K-βNA substrate, 10 min preincubation.

Like-named read-outs stand apart in the source and are kept apart here. Non-standard residues stand in square brackets, D forms with d. Residues, ends and D or L forms follow the SMILES beside them. *: point of attachment. Sta = CC(C)C[C@H](N)[C@@H](O)CC(=O)O; Isovaleryl = CC(C)CC(=O)*

As to `N=C(N)c1ccccc1` [Benzamidine], the “Inhibition (%) EP-1” value with medaka EP-1 protease (setting [3]) is reported as 79%. The “Inhibition (%) EP-2” value with medaka EP-2 protease (setting [3]) was found to be 78%.

As to `CC(C)C[C@H](NC(=O)[C@@H](NC(=O)N[C@@H](Cc1ccccc1)C(=O)O)[C@@H]1CCN=C(N)N1)C(=O)N[C@H](C=O)Cc1ccccc1` [Chymostatin], in the assay with medaka EP-1 protease, the “Inhibition (%) EP-1” value is recorded as 0%. For the same compound, in the assay on medaka EP-2 protease, the “Inhibition (%) EP-2” value amounted to 0%.

With `CC(C)C[C@H](NC(=O)[C@H]1O[C@@H]1C(=O)O)C(=O)NCCCCN=C(N)N` [E-64], the inhibition at 200 µM in assay [1] (setting [4]) and in assay [2] (setting [4]) was 0% in each case.

Regarding `O=C(O)CN(CCN(CC(=O)O)CC(=O)O)CC(=O)O` [EDTA], the inhibition at 5000 µM in assay [1] stood at 5%; in assay [2] it was 10%.

Turning to `CC(=O)N[C@@H](CC(C)C)C(=O)N[C@@H](CC(C)C)C(=O)N[C@H](C=O)CCCNC(=N)N` [Leupeptin], the “Inhibition (%) EP-1” value in the assay with medaka EP-1 protease turned out to be 43%. For the same compound, the “Inhibition (%) EP-2” value in the assay on medaka EP-2 protease was 47%.

On to `CC(C)CC(=O)N[C@H](C(=O)N[C@H](C(=O)N[C@@H](CC(C)C)[C@@H](O)CC(=O)N[C@@H](C)C(=O)N[C@@H](CC(C)C)[C@@H](O)CC(=O)O)C(C)C)C(C)C` [Pepstatin] (Isovaleryl-VV[Sta]A[Sta]-OH), for which the “Inhibition (%) EP-1” value in the assay on medaka EP-1 protease (setting [5]) came to 0%. The “Inhibition (%) EP-2” value with medaka EP-2 protease (setting [5]) came to 3%.

In the case of Aprotinin, the “Inhibition (%) EP-1” value in the assay with medaka EP-1 protease (setting [6]) was determined as 0%. Also, the “Inhibition (%) EP-2” value in the assay on medaka EP-2 protease (setting [6]) amounted to 5%.
